From PubChem BioAssay (NCI)
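Here, GI50 denotes the concentration required for 50% inhibition of growth. Definition used: TGI = concentration required for complete inhibition of growth.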

What was measured:
Assay in all cases: DTP human tumour cell line panel, 384-well format
786-0 renal = system: 786-0 renal
A498 renal = system: A498 renal
A549 NSCLC = system: A549 NSCLC
ACHN renal = system: ACHN renal
BT-549 breast = system: BT-549 breast
CAKI-1 renal = system: CAKI-1 renal
CCRF-CEM leukemia = system: CCRF-CEM leukemia
COLO 205 colon = system: COLO 205 colon
DU-145 prostate = system: DU-145 prostate
HCC-2998 colon = system: HCC-2998 colon
HCT-116 colon = system: HCT-116 colon
HCT-15 colon = system: HCT-15 colon
HL-60(TB) leukemia = system: HL-60(TB) leukemia
HOP-62 NSCLC = system: HOP-62 NSCLC
HOP-92 NSCLC = system: HOP-92 NSCLC
HT29 colon = system: HT29 colon
IGROV1 ovarian = system: IGROV1 ovarian
K-562 leukemia = system: K-562 leukemia
KM12 colon = system: KM12 colon
LOX IMVI melanoma = system: LOX IMVI melanoma
M14 melanoma = system: M14 melanoma
MALME-3M melanoma = system: MALME-3M melanoma
MCF7 breast = system: MCF7 breast
MDA-MB-231 breast = system: MDA-MB-231 breast
MDA-MB-435 melanoma = system: MDA-MB-435 melanoma
MDA-MB-468 breast = system: MDA-MB-468 breast
MOLT-4 leukemia = system: MOLT-4 leukemia
NCI-H226 lung = system: NCI-H226 lung
NCI-H23 lung = system: NCI-H23 lung
NCI-H322M lung = system: NCI-H322M lung
NCI-H460 NSCLC = system: NCI-H460 NSCLC
NCI-H522 lung = system: NCI-H522 lung
NCI/ADR-RES ovarian = system: NCI/ADR-RES ovarian
OVCAR-3 ovarian = system: OVCAR-3 ovarian
OVCAR-4 ovarian = system: OVCAR-4 ovarian
OVCAR-5 ovarian = system: OVCAR-5 ovarian
OVCAR-8 ovarian = system: OVCAR-8 ovarian
PC-3 prostate = system: PC-3 prostate
RPMI-8226 leukemia = system: RPMI-8226 leukemia
RXF 393 renal = system: RXF 393 renal
SF-268 CNS = system: SF-268 CNS
SF-295 CNS = system: SF-295 CNS
SF-539 CNS = system: SF-539 CNS
SK-MEL-2 melanoma = system: SK-MEL-2 melanoma
SK-MEL-28 melanoma = system: SK-MEL-28 melanoma
SK-MEL-5 melanoma = system: SK-MEL-5 melanoma
SK-OV-3 ovarian = system: SK-OV-3 ovarian
SN12C renal = system: SN12C renal
SNB-19 CNS = system: SNB-19 CNS
SR leukemia = system: SR leukemia
SW-620 colon = system: SW-620 colon
T-47D breast = system: T-47D breast
TK-10 renal = system: TK-10 renal
U251 glioblastoma = system: U251 glioblastoma
UACC-257 melanoma = system: UACC-257 melanoma
UACC-62 melanoma = system: UACC-62 melanoma
UO-31 renal = system: UO-31 renal

Nc1ncn([C@H]2C[C@H](OP(=O)(O)OC[C@H]3O[C@@H](n4cnc5c(=O)[nH]c(N)nc54)C[C@@H]3O)[C@@H](CO)O2)c(=O)n1
GI50 ([…]-0 renal): 3.34 µM | TGI (786-0 renal): 31.1 µM | GI50 (A498 renal): 37.7 µM | TGI (A498 renal): > 100 µM | GI50 (A549 NSCLC): 10.8 µM | TGI (A549 NSCLC): > 100 µM | GI50 (ACHN renal): 2330 nM | TGI (ACHN renal): 83.2 µM | GI50 (BT-549 breast): 6.95 µM | TGI (BT-549 breast): 40.6 µM | GI50 (CAKI-1 renal): 7.79 µM | TGI (CAKI-1 renal): > 100 µM | GI50 (CCRF-CEM leukemia): 72.4 nM | TGI (CCRF-CEM leukemia): 1880 nM | GI50 (COLO 205 colon): 68.9 µM | TGI (COLO 205 colon): > 100 µM | GI50 (DU-145 prostate): 33.3 µM | TGI (DU-145 prostate): > 100 µM | GI50 (HCC-2998 colon): 2820 nM | TGI (HCC-2998 colon): > 100 µM | GI50 (HCT-116 colon): 2790 nM | TGI (HCT-116 colon): > 100 µM | GI50 (HCT-15 colon): > 100 µM | TGI (HCT-15 colon): > 100 µM | GI50 (HL-60(TB) leukemia): 1160 nM | TGI (HL-60(TB) leukemia): 18.2 µM | GI50 (HOP-62 NSCLC): 1830 nM | TGI (HOP-62 NSCLC): 53.3 µM | GI50 (HOP-92 NSCLC): 54.5 µM | TGI (HOP-92 NSCLC): > 100 µM | GI50 (HT29 colon): 46.5 µM | TGI (HT29 colon): > 100 µM | GI50 (IGROV1 ovarian): > 100 µM | TGI (IGROV1 ovarian): > 100 µM | GI50 (K-562 leukemia): 1480 nM | TGI (K-562 leukemia): > 100 µM | GI50 (KM12 colon): > 100 µM | TGI (KM12 colon): > 100 µM | GI50 (LOX IMVI melanoma): 13.5 µM | TGI (LOX IMVI melanoma): 37.4 µM | GI50 (M14 melanoma): 922 nM | TGI (M14 melanoma): > 100 µM | GI50 (MALME-3M melanoma): 20.6 µM | TGI (MALME-3M melanoma): > 100 µM | GI50 (MCF7 breast): 14 µM | TGI (MCF7 breast): > 100 µM | GI50 (MDA-MB-231 breast): 38.3 µM | TGI (MDA-MB-231 breast): > 100 µM | GI50 (MDA-MB-435 melanoma): 43.6 µM | TGI (MDA-MB-435 melanoma): > 100 µM | GI50 (MDA-MB-468 breast): 43.1 nM | TGI (MDA-MB-468 breast): 368 nM | GI50 (MOLT-4 leukemia): 56.6 nM | TGI (MOLT-4 leukemia): 373 nM | GI50 (NCI-H226 lung): 32.7 µM | TGI (NCI-H226 lung): > 100 µM | GI50 (NCI-H23 lung): > 100 µM | TGI (NCI-H23 lung): > 100 µM | GI50 (NCI-H322M lung): 28.8 µM | TGI (NCI-H322M lung): > 100 µM | GI50 (NCI-H460 NSCLC): 763 nM | TGI (NCI-H460 NSCLC): > 100 µM | GI50 (NCI-H522 lung): 4 µM | TGI (NCI-H522 lung): 71.3 µM | GI50 (NCI/ADR-RES ovarian): > 100 µM | TGI (NCI/ADR-RES ovarian): > 100 µM | GI50 (OVCAR-3 ovarian): > 100 µM | TGI (OVCAR-3 ovarian): > 100 µM | GI50 (OVCAR-4 ovarian): > 100 µM | TGI (OVCAR-4 ovarian): > 100 µM | GI50 (OVCAR-5 ovarian): 77.6 µM | TGI (OVCAR-5 ovarian): > 100 µM | GI50 (OVCAR-8 ovarian): 10.8 µM | TGI (OVCAR-8 ovarian): > 100 µM | GI50 (PC-3 prostate): 28.4 µM | TGI (PC-3 prostate): > 100 µM | GI50 (RPMI-8226 leukemia): 71.4 nM | TGI (RPMI-8226 leukemia): 451 nM | GI50 (RXF 393 renal): 1050 nM | TGI (RXF 393 renal): 6.21 µM | GI50 (SF-268 CNS): 12.4 µM | TGI (SF-268 CNS): 56.6 µM | GI50 (SF-295 CNS): > 100 µM | TGI (SF-295 CNS): > 100 µM | GI50 (SF-539 CNS): 20.8 µM | TGI (SF-539 CNS): > 100 µM | GI50 (SK-MEL-2 melanoma): > 100 µM | TGI (SK-MEL-2 melanoma): > 100 µM | GI50 (SK-MEL-28 melanoma): 26.1 µM | TGI (SK-MEL-28 melanoma): > 100 µM | GI50 (SK-MEL-5 melanoma): 437 nM | TGI (SK-MEL-5 melanoma): 10.7 µM | GI50 (SK-OV-3 ovarian): > 100 µM | TGI (SK-OV-3 ovarian): > 100 µM | GI50 (SN12C renal): 5.84 µM | TGI (SN12C renal): 26.4 µM | GI50 (SNB-19 CNS): > 100 µM | TGI (SNB-19 CNS): > 100 µM | GI50 (SR leukemia): 6.81 µM | TGI (SR leukemia): 25.5 µM | GI50 (SW-620 colon): 18.5 µM | TGI (SW-620 colon): > 100 µM | GI50 (T-47D breast): 13 µM | TGI (T-47D breast): 47 µM | GI50 (TK-10 renal): 32.2 µM | TGI (TK-10 renal): > 100 µM | GI50 (U251 glioblastoma): 11.2 µM | TGI (U251 glioblastoma): > 100 µM | GI50 (UACC-257 melanoma): > 100 µM | TGI (UACC-257 melanoma): > 100 µM | GI50 (UACC-62 melanoma): 26.6 µM | TGI (UACC-62 melanoma): > 100 µM | GI50 (UO-31 renal): > 100 µM | TGI (UO-31 renal): > 100 µM
